Patent publication EP4696306A1, “ADENOSINE TRIPHOSPHATE SECRETION INHIBITOR, HEPATIC STELLATE CELL ACTIVATION INHIBITOR, HEPATIC STELLATE CELL DEACTIVATOR, HEPATIC FIBROSIS THERAPEUTIC AGENT, NON-ALCOHOLIC STEATOHEPATITIS THERAPEUTIC AGENT, PSORIASIS THERAPEUTIC AGENT, AND USE OF COMPOUND FOR PRODUCING ADENOSINE TRIPHOSPHATE …” (KURUME UNIVERSITY, priority 2023, dated 2024)

Tests used:
[1] = tested on: ATP transport activity in isolated chromaffin granule membranes; assay: ATP transport (3H-ATP uptake) in chromaffin granule membrane vesicles; assay type: biochemical, bovine; conditions: for IC50: PEP analogs; for inhibitory activity on ATP transport: concentration not given
Procedure: (§1) Chromaffin granule membranes were prepared from adrenal glands collected from slaughtered cattle according to Reference A (Nathan Nelson et al., 1988, Chromaffin Granule Proton Pump, Methods in Enzymology, 157, 619-633). Chromaffin granule membranes prepared by sucrose density gradient centrifugation were suspended in 2 ml of SME buffer (20 mM MOPS-tris (pH 7.0), 0.3 M sucrose, 5 mM EDTA, 10 µg/ml leupeptin, and 10 µg/ml pepstatin) + 25% glycerol, and the resulting suspension was aliquoted and stored at -80°C. Under these conditions, the ATP transport activity, the V-ATPase activity, and the catecholamine transport activity remain fully active for at least one year.
An ATP transport inhibition experiment for the chromaffin granule membrane was carried out according to Reference B (Yoshinori Moriyama et al., 2022, Is the vesicular nucleotide transporter a molecular target of eicosapentaenoic acid?, Frontiers in Pharmacology, 103389). About 20 µg of chromaffin granule membranes were added to 0.5 ml of measurement buffer (20 mM MOPS-tris (pH 7.0), 0.3 M sucrose, 5 mM potassium chloride, 5 mM magnesium acetate, 5 mM creatine phosphate, 10 units of creatine kinase, and 1 mM ^3[H]-ATP [15 KBq/assay]), followed by incubation at 30°C for 1 hour. Through a Millipore MCE membrane filter with a pore size 0.45 µm, 0.2 ml of the reaction liquid was filtered by suction. Thereafter, the filter was washed with 10 ml of 20 mM MOPS-tris (pH 7.0), 0.3 M sucrose, 5 mM potassium chloride, and 5 mM magnesium acetate, and dissolved in 10 ml of Clear-sol II (manufactured by Nacalai Tesque, Inc.). The radioactivity was then measured using a liquid scintillation counter (N = 3).
The reaction was initiated by adding 50 mM ^3[H]-ATP to a final concentration of 1 mM. The 50 mM ^3[H]-ATP was prepared by mixing an ATP-tris solution (manufactured by Sigma-Aldrich) with [2,8-^3H] adenosine triphosphate tetrasodium salt (26.0 Ci/mmol) (manufactured by New England Nuclear). PEP was used as a test reagent, and pyruvic acid was used as a negative control. Five minutes before the addition of ATP, PEP or pyruvic acid, as a solution in 20 mM MOPS-tris (pH 7.0), 0.3 M sucrose, 5 mM potassium chloride, and 5 mM magnesium acetate, was added to the measurement liquid to a final PEP concentration of 0.02, 0.05, 0.1, 0.2, 0.4, or 1 mM, or to a final pyruvic acid concentration of 0.5 or 1 mM.
(§2) Chromaffin granule membrane vesicles were prepared in the same manner as in Example 5, and uptake of radiolabeled ATP into the vesicles was measured. Transport activity of catecholamine (dopamine) and ATP-dependent proton transport by V-ATPase were also measured in the same manner as in Example 5.

human VNUT = target: T1, human VNUT (Homo sapiens, UniProt Q9BYT1); assay: ATP loading into reconstituted liposomes containing human VNUT; assay type: biochemical; conditions: pyruvic acid at a 50-fold higher concentration (5 mM)
T1 construct: made in house; host or cells: HIGH FIVE insect cells (baculovirus)
T1 sequence (Q9BYT1 1-430 isoform Q9BYT1-2): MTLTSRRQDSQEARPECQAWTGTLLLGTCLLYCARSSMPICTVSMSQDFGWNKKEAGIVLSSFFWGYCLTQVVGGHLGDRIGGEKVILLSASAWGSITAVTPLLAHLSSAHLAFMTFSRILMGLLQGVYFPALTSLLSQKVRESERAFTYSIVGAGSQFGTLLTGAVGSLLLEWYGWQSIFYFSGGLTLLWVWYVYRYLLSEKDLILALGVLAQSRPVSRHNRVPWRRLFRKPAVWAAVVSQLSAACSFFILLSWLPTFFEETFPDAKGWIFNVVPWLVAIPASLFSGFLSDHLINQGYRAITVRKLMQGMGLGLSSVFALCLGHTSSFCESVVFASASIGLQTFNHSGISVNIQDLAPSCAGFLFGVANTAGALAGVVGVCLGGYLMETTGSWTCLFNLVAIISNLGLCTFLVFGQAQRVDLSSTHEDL
Procedure: Human VNUT was prepared according to Reference C (Keisuke Sawada et al., 2008, Identification of a vesicular nucleotide transporter, Proc Natl Acad Sci USA, vol. 105, no. 15, 5683-5686). Insect cells (HIGH FIVE cells) were infected at MOI = 1 with a baculovirus in which a human VNUT expression system was incorporated. HIGH FIVE cells expressing VNUT (1 × 10^8 cells) were collected with a cell scraper, and suspended at about 8 mg/ml in 20 mM Tris-HCl (pH 8.0), 0.1 M potassium acetate, 10% glycerol, 10 µg/ml pepstatin A, and 10 µg/ml leupeptin, followed by homogenization of the cells using an ultrasonic generator (manufactured by Sonics Materials). […]
VNUT (protein, 20 µg) prepared by the above method was mixed with liposomes (lipid weight, 200 µg), and left to stand at -80°C for 30 minutes. […] A major band was detected at a position of about 68 kDa. The proteins after the electrophoresis with the ePAGEL E-T520 2-10% gradient gel (manufactured by Atto) were electrotransferred to a nitrocellulose sheet, and analyzed by Western blotting using an anti-human SLC17A9 (VNUT) rabbit polyclonal antibody (manufactured by Proteintech).
The ATP transport activity of the VNUT-containing reconstituted liposomes prepared by the above method was measured. […]

catecholamine transport = assay: Catecholamine (3H-dopamine) transport in chromaffin granule membranes; assay type: biochemical, bovine; conditions: 1 µM reserpine
Procedure: as §1
A catecholamine transport inhibition experiment was carried out in the same manner as the ATP transport experiment except that the experiment used a measurement liquid containing 20 mM MOPS-tris (pH 7.0), 0.1 M sucrose, 0.1 M potassium chloride, 5 mM magnesium acetate, and about 5 µg of chromaffin granule membranes. To 0.5 ml of the measurement liquid, 2 mM ATP was added, and the resulting mixture was incubated at 30°C for about 5 minutes, followed by addition of^3 [H]-dopamine thereto to a final concentration of 10 µM. After further incubation at 30°C for 15 minutes, 0.2 ml of the reaction liquid was subjected to suction filtration through a Millipore MCE membrane filter with a pore size of 0.45 µm, and the radioactivity on the filter was measured (N = 3). The substrate, ^3[H]-dopamine, was prepared by mixing 3,4-[RING-2,5,6-^3H]dihydroxyphenylethylamine (dopamine) (30 Ci/mmol) (manufactured by New England Nuclear) with dopamine hydrochloride (manufactured by LKT Laboratories) such that a final concentration of 0.1 mM was achieved during the use.
as §2

| SMILES | inhibitory activity on ATP transport [1] | further results |
| --- | --- | --- |
| O=C(O)C(O)COP(=O)(O)O (stereo not drawn) [3-phosphoglyceric acid] |  | IC50 [1]: 450 µM |
| O=C(O)[C@@H](CO)OP(=O)(O)O [D-2-phosphoglyceric acid] |  | IC50 [1]: 180 µM |
| O=C(O)[C@H](CO)OP(=O)(O)O [L-2-phosphoglyceric acid] |  | IC50 [1]: 180 µM |
| C[C@H](O)C(=O)O [L-lactic acid] | no inhibitory activity |  |
| NC(=O)c1ccc[n+]([C@@H]2O[C@H](COP(=O)([O-])OP(=O)(O)OC[C@H]3O[C@@H](n4cnc5c(N)ncnc54)[C@H](O)[C@@H]3O)[C@@H](O)[C@H]2O)c1 [NAD+] | no inhibitory activity |  |
| CC(=O)SCCNC(=O)CCNC(=O)[C@H](O)C(C)(C)COP(=O)(O)OP(=O)(O)OC[C@H]1O[C@@H](n2cnc3c(N)ncnc32)[C@H](O)[C@@H]1OP(=O)(O)O [acetyl-CoA] | no inhibitory activity |  |
| O=C(O)CC(O)(CC(=O)O)C(=O)O [citric acid] | no inhibitory activity |  |
| O=C(CO)[C@@H](O)[C@H](O)[C@H](O)COP(=O)(O)O [fructose-6-phosphate] | no inhibitory activity |  |
| O=C[C@H](O)[C@@H](O)[C@H](O)[C@H](O)COP(=O)(O)O [glucose-6-phosphate] | no inhibitory activity |  |
| O=C(O)CC(O)C(=O)O (stereo not drawn) [malic acid] | no inhibitory activity |  |
| O=C(O)CC(=O)C(=O)O [oxaloacetic acid] | no inhibitory activity |  |
| CC(=O)C(=O)O [pyruvic acid] | no inhibitory activity | ATP loading into liposomes (human VNUT): did not inhibit ATP loading into liposomes; inhibition of ATP transport ([1]; concentrations of up to 1 mM): did not inhibit ATP transport |
| COC(=O)[C@H]1[C@H]2C[C@@H]3c4[nH]c5cc(OC)ccc5c4CCN3C[C@H]2C[C@@H](OC(=O)c2cc(OC)c(OC)c(OC)c2)[C@@H]1OC [reserpine] |  | ATP-dependent dopamine transport (catecholamine transport): almost completely blocked |
